# Reference: patent US7795220B2, “Conformationally constrained parathyroid hormones with alpha-helix stabilizers” (The General Hospital Corporation, priority 2003, dated 2010)
# Read-outs that look alike come from different tables or passages of the source. Non-standard residues stand in square brackets, D forms with d. Residues, ends and D or L forms follow the SMILES beside them. No end group written: not given here. hArg = N=C(N)NCCCC[C@H](N)C(=O)O; Aib = CC(C)(N)C(=O)O
# Test system: P1R (recombinant P1R chimera) in HKRK-B28 cells
# Experiment: cAMP stimulation in HKRK-B28 cells
# Type: cell-based, opposum/rat chimera
# Conditions: for EC50: intracellular cAMP accumulation, read-out: cAMP-stimulating potency (EC50)
# Description: Cell Culture. The cell line HKRK-B28 (Takasu, H., et al., J. Bone Miner. Res. 14:11-20 (1999)) was derived from the porcine kidney cell line, LLC-PK1 by stable transfection with plasmid DNA encoding a recombinant P1R chimera comprised of the opposum P1R from the N-terminus to the mid region of TM3 and the rat P1R from the mid region of TM3 to the C-terminus. The surface density of the P1R in these cells is ˜280,000 receptors per cell. The clonal cell line LdelNt-2 was derived from LLC-PK, cells via stable transfection with a plasmid encoding P1R-delNt, a recombinant human PTH-1 receptor construct in which most of the amino-terminal extracellular domain is deleted. These cells, as well as COS-7 cells and SaOS-2-B10 cells, were cultured at […] in T-75 flasks ([…]) in Dulbecco's modified Eagle's medium (DMEM) supplemented with fetal bovine serum (10%), penicillin G (20 units/ml), streptomycin sulfate (20 μg/ml) and amphotericin B (0.05 μg/ml) in a humidified atmosphere containing 5% CO2. Stock solutions of EGTA/trypsin and antibiotics were from GLBCO; fetal bovine serum was from Hyclone Laboratories (Logan, Utah). COS-7 cells sub-cultured in 24-well plates were transfected with plasmid DNA (200 ng per well) encoding the wild-type human P1R or truncated human P1R deleted for residues (24-181) (Shimizu, M., et al., J. Biol. Chem. 275:21836-21843 (2000)) that was purified by cesium chloride/ethidium bromide density gradient centrifugation, and FuGENE 6 transfection reagent (Roche Indianapolis Ind.) according to the manufacturer's recommended procedure. All cells, in 24-well plates, were treated with fresh media and shifted to 33° C. for 12 to 24 h prior to assay.
# cAMP Stimulation. Stimulation of cells with peptide analogs was performed in 24-well plates. Cells were rinsed with 0.5 mL of binding buffer (50 mM Tris-HCl, 100 mM NaCl, 5 mM KCl, 2 mM CaCl2, 5% heat-inactivated horse serum, 0.5% fetal bovine serum, adjusted to pH 7.5 with HCl) and treated with 200 μL of cAMP assay buffer (Delbecco's modified Eagle's medium containing 2 mM 3-isobutyl-1-methylxanthine, 1 mg/mL bovine serum albumin, 35 mM Hepes-NaOH, pH 7.4) and 100 μL of binding buffer containing varying amounts of peptide analog (final volume=300 μL). The medium was removed after incubation for 30 to 60 minutes at room temperature, and the cells were frozen on dry ice, lysed with 0.5 mL 50 mM HCl, and refrozen ([…]). The cAMP content of the diluted lysate was determined by radioimmunoassay. The EC50 response values were calculated using nonlinear regression (see below).
# Data Calculation. Calculations were performed using Microsoft® Excel. Nonlinear regression analyses of binding and cAMP dose-response data were performed using the four-parameter equation: yp=Min+[(Max−Min)/(1+(IC50/x)^slope)]. The Excel Solver function was utilized for parameter optimization, as described previously (Carter, P. H., et al., Endocrinology 140: 4972-4981 (1999); Bowen, W. P., and Jerman, J. C., Trends in Pharmacol. Sci. 16: 413-417 (1995)). Differences between paired data sets were statistically evaluated using a one-tailed Student's t-test, assuming unequal variances for the two sets.
molecule,measurement,setting,value
native PTH(1-9): native PTH(1-9) (SEQ. ID. NO. 33) (SVSEIQLMH-NH2) [reference compound],cAMP agonist activity at single high concentration (in words),peptide at 10^−4M,inactive
"CC[C@H](C)[C@H](NC(=O)[C@H](CCC(=O)O)NC(=O)[C@H](C)NC(=O)[C@@H](NC(=O)[C@H](C)N)C(C)C)C(=O)N[C@@H](CCC(N)=O)C(=O)N[C@@H](CC(C)C)C(=O)N[C@@H](CCSC)C(=O)N[C@@H](Cc1c[nH]cn1)C(=O)N[C@@H](CCC(N)=O)C(=O)N[C@@H](CCCCNC(=N)N)C(=O)N[C@@H](C)C(=O)N[C@@H](CCCCN)C(=O)N[C@@H](Cc1c[nH]c2ccccc12)C(N)=O [[M]PTH(1-14), [Ala^1,3,12,Gln^10,Har^11,Trp^14]PTH(1-14)NH2, reference compound] (H-AVAEIQLMHQ[hArg]AKW-NH2)",EC50,"HKRK-B28 cells, listed as [Ala^1,3,12,Gln^10,Har^11,Trp^14]PTH(1-14)NH2",220 ± 80 nM
same,EC50,HKRK-B28 cells,200 nM
same,maximum cAMP response,"HKRK-B28 cells, n=7",225±21 picomoles of cAMP per well
"[Aib^1,3,Gln^10]PTH(1-10)NH2 ([Aib]V[Aib]EIQLMHQ-NH2; N-terminus assumed; SMILES CC[C@H](C)[C@H](NC(=O)[C@H](CCC(=O)O)NC(=O)C(C)(C)NC(=O)[C@@H](NC(=O)C(C)(C)N)C(C)C)C(=O)N[C@@H](CCC(N)=O)C(=O)N[C@@H](CC(C)C)C(=O)N[C@@H](CCSC)C(=O)N[C@@H](Cc1c[nH]cn1)C(=O)N[C@@H](CCC(N)=O)C(N)=O) [ID; NO; 35]",increase in cAMP levels relative to basal,"HKRK-B28 cells, peptide at 1×10^−4M",two
same,activity / cAMP response in cell-based assays (in words),P1R-transfected cells,measurable cAMP responses can be detected
